Source: US20110086834A1, “ALKYNYL ALCOHOLS AS KINASE INHIBITORS” (AMGEN INC., priority 2008, published 2011)
Each block holds one compound with its values, some of them ahead of it.

Biological target: T1, NIK (Homo sapiens, UniProt Q99558)
T1 construct: Both assays utilize a truncated form of NIK containing only the catalytic domain; made in house; host or cells: baculovirus expression system (insect cells implied)
Assay: homogenous time resolved fluorescence (HTRF) assay for NIK Ki measurement
Type: biochemical
Details: truncated NIK (catalytic domain only), autophosphorylation; 10 nM enzyme; 20, 100, 200 or 500 μM ATP; room temperature, 2 hours; read-out: Ki activity in the homogenous time resolved fluorescence (HTRF) assay for NIK

T1 sequence (Q99558 400-655 limits assumed): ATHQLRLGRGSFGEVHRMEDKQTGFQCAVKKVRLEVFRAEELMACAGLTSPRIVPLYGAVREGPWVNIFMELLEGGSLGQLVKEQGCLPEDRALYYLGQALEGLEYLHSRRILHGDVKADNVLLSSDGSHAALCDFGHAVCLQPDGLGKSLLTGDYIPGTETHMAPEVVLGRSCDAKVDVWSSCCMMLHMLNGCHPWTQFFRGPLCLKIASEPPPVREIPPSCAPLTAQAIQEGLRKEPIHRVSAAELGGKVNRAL

SMILES: Nc1ncc2c(n1)-c1c(nc3ccc(C#CC4(O)CCCC4)cn13)CCC2 [Example 249, 1-((2-amino-6,7-dihydro-5H-pyrido[1″,2″:1′,2′]imidazo[4′,′:6,7]cyclohepta[1,2-d]pyrimidin-11-yl)ethynyl)cyclopentanol]
- Ki: < 1 µM

SMILES: CC(C)(O)C#Cc1ccc2nc3c(n2c1)-c1nc(N)ncc1CCC3 [Example 250, 4-(2-Amino-6,7-dihydro-5H-pyrido[1″,2″:1′,2′]imidazo[4′,′:6,7]cyclohepta[1,2-d]pyrimidin-11-yl)-2-methyl-3-butyn-2-ol]
- Ki: < 1 µM

SMILES: CNc1ncc2c(n1)-c1c(nc3ccc(C#CC4(O)CCCC4)cn13)CCC2 [Example 251, 1-((2-(methylamino)-6,7-dihydro-5H-pyrido[1″,2″:1′,2′]imidazo[4′,5′:6,7]-cyclohepta[1,2-d]pyrimidin-11-yl)ethynyl)cyclopentanol]
- Ki: 1 to 30 µM

SMILES: CNc1ncc2c(n1)-c1c(nc3ccc(C#CC(C)(C)O)cn13)CCC2 [Example 252, 2-methyl-4-(2-(methylamino)-6,7-dihydro-5H-pyrido[1″,2″:1′,2′]imidazo[4′,′:6,7]-cyclohepta[1,2-d]pyrimidin-11-yl)-3-butyn-2-ol]
- Ki: 1 to 30 µM

SMILES: O=C(NCCCN1CCOCC1)c1cnccc1Nc1cccc(C#CC2(O)CCCC2)c1 [Example 253, 4-((3-((1-Hydroxycyclopentyl)ethynyl)phenyl)amino)-N-(3-(4-morpholinyl)propyl)-3-pyridinecarboxamide]
- Ki: 1 to 30 µM

SMILES: O=C(NCCCN1CCOCC1)c1cnccc1-n1ccc2ccc(C#CC3(O)CCCC3)cc21 [Example 254, 4-(6-((1-Hydroxycyclopentyl)ethynyl)-1H-indol-1-yl)-N-(3-(4-morpholinyl)propyl)-3-pyridinecarboxamide]
- Ki: 1 to 30 µM

SMILES: CNC(=O)c1cc(N2CCc3ccc(C#CC4(O)CCCC4)cc32)ccn1 [Example 255, 4-(6-((1-hydroxycyclopentyl)ethynyl)-2,3-dihydro-1H-indol-1-yl)-N-methyl-2-pyridinecarboxamide]
- Ki: 1 to 30 µM

SMILES: OC1(C#Cc2ccc3ccn(-c4ccnc(Nc5ccccc5)n4)c3c2)CCCC1 [Example 256, 1-((1-(2-(Phenylamino)-4-pyrimidinyl)-1H-indol-6-yl)ethynyl)cyclopentanol]
- Ki: < 1 µM

SMILES: OC1(C#Cc2ccc3ccn(-c4cc(Nc5ccccc5)ncn4)c3c2)CCCC1 [Example 257, 1-((1-(6-(phenylamino)-4-pyrimidinyl)-1H-indol-6-yl)ethynyl)cyclopentanol]
- Ki: 1 to 30 µM

SMILES: COc1cc(Nc2cc(-n3ccc4ccc(C#CC5(O)CCCC5)cc43)ncn2)cc(OC)c1OC [Example 258, 1-((1-(6-((3,4,5-tris(methyloxy)phenyl)amino)-4-pyrimidinyl)-1H-indol-6-yl)ethynyl)cyclopentanol]
- Ki: 1 to 30 µM

SMILES: COc1cc(Nc2nccc(-n3ccc4ccc(C#CC5(O)CCCC5)cc43)n2)cc(OC)c1OC [Example 259, 1-((1-(2-((3,4,5-tris(methyloxy)phenyl)amino)-4-pyrimidinyl)-1H-indol-6-yl)-ethynyl)cyclopentanol]
- Ki: < 1 µM

SMILES: COc1ccc(Nc2cc(-n3ccc4ccc(C#CC5(O)CCCC5)cc43)ncn2)cc1 [Example 260, 1-((1-(6-((4-(methyloxy)phenyl)amino)-4-pyrimidinyl)-1H-indol-6-yl)-ethynyl)-cyclopentanol]
- Ki: 1 to 30 µM

SMILES: COCCOc1cnc(N)nc1-c1c[nH]c2ccc(C#CC(C)(O)C(F)(F)F)cc12 (stereo not shown) [Example 261, 4-(3-(2-Amino-5-((2-(methyloxy)ethyl)oxy)-4-pyrimidinyl)-1H-indol-5-yl)-1,1,1-trifluoro-2-methyl-3-butyn-2-ol]
- Ki: 1 to 30 µM

SMILES: CCN(CC)CCNC(=O)c1ccc(Nc2nccc(N3CCc4ccc(C#CC5(O)CCCC5)cc43)n2)cc1 [Example 262, N-(2-(diethylamino)ethyl)-4-((4-(6-((1-hydroxycyclopentyl)ethynyl)-2,3-dihydro-1H-indol-1-yl)-2-pyrimidinyl)amino)benzamide]
- Ki: < 1 µM

SMILES: COc1ccc(C#CC2(O)CCCC2)cc1Nc1ccnc(N)n1 [Example 270, 1-((3-((2-amino-4-pyrimidinyl)amino)-4-(methyloxy)phenyl)ethynyl)cyclopentanol]
- Ki: < 1 µM

Further lines, results first:

- Ki: < 1 µM
SMILES: Nc1nccc(N2CCc3ccc(C#CC4(O)CCSC4)cc32)n1 (stereo not shown) [Example 264, 3-((1-(2-amino-4-pyrimidinyl)-2,3-dihydro-tH-indol-6-yl)ethynyl)tetrahydro-3-thiopheneol]

- Ki: < 1 µM
SMILES: CCC(C)(O)C#Cc1ccc2c(c1)N(c1ccnc(N)n1)CC2 (stereo not shown) [Example 265, 1-(1-(2-Amino-4-pyrimidinyl)-2,3-dihydro-1H-indol-6-yl)-3-methyl-1-pentyn-3-ol]

- Ki: 1 to 30 µM
SMILES: CC(C)C(C)(O)C#Cc1ccc2c(c1)N(c1ccnc(N)n1)CC2 (stereo not shown) [Example 266, 1-(1-(2-Amino-4-pyrimidinyl)-2,3-dihydro-1H-indol-6-yl)-3,4-dimethyl-1-pentyn-3-ol]

- Ki: < 1 µM
SMILES: CC(O)(C#Cc1ccc2c(c1)N(c1ccnc(N)n1)CC2)c1ccccc1 (stereo not shown) [Example 267, 4-(1-(2-Amino-4-pyrimidinyl)-2,3-dihydro-1H-indol-6-yl)-2-phenyl-3-butyn-2-ol]

- Ki: 1 to 30 µM
SMILES: CC(C)(C)C(C)(O)C#Cc1ccc2c(c1)N(c1ccnc(N)n1)CC2 (stereo not shown) [Example 268, 1-(1-(2-Amino-4-pyrimidinyl)-2,3-dihydro-1H-indol-6-yl)-3,4,4-trimethyl-1-pentyn-3-ol]

- Ki: < 1 µM
SMILES: CC(O)(C#Cc1ccc2c(c1)N(c1ccnc(N)n1)CC2)c1ccco1 (stereo not shown) [Example 269, 4-(1-(2-Amino-4-pyrimidinyl)-2,3-dihydro-1H-indol-6-yl)-2-(2-furanyl)-3-butyn-2-ol]

- Ki: < 1 µM
SMILES: CC(C)(O)C#Cc1ccc2c(c1)N(c1ccnc(N)n1)CC2 [Example 271, 4-(1-(2-Amino-4-pyrimidinyl)-2,3-dihydro-1H-indol-6-yl)-2-methyl-3-butyn-2-ol]

- Ki: 1 to 30 µM
SMILES: CC(O)(C#Cc1ccc2c(c1)N(c1ccnc(N)n1)CC2)c1ccncc1 (stereo not shown) [Example 272, 4-(1-(2-Amino-4-pyrimidinyl)-2,3-dihydro-1H-indol-6-yl)-2-(4-pyridinyl)-3-butyn-2-ol]

- Ki: < 1 µM
SMILES: CC(O)(C#Cc1ccc2c(c1)N(c1ccnc(N)n1)CC2)c1cccs1 (stereo not shown) [Example 273, 4-(1-(2-Amino-4-pyrimidinyl)-2,3-dihydro-1H-indol-6-yl)-2-(2-thienyl)-3-butyn-2-ol]

- Ki: < 1 µM
SMILES: CC(O)(C#Cc1ccc2c(c1)N(c1ccnc(N)n1)CC2)c1ccsc1 (stereo not shown) [Example 274, 4-(1-(2-Amino-4-pyrimidinyl)-2,3-dihydro-1H-indol-6-yl)-2-(3-thienyl)-3-butyn-2-ol]

- Ki: < 1 µM
SMILES: Cc1ccc(C(C)(O)C#Cc2ccc3c(c2)N(c2ccnc(N)n2)CC3)o1 (stereo not shown) [Example 275, 4-(1-(2-Amino-4-pyrimidinyl)-2,3-dihydro-1H-indol-6-yl)-2-(5-methyl-2-furanyl)-3-Butyn-2-ol]

- Ki: < 1 µM
SMILES: CC(O)(C#Cc1ccc2c(c1)N(c1ccnc(N)n1)CC2)c1nccs1 (stereo not shown) [Example 276, 4-(1-(2-Amino-4-pyrimidinyl)-2,3-dihydro-1H-indol-6-yl)-2-(1,3-thiazol-2-yl)-3-butyn-2-ol]

- Ki: < 1 µM
SMILES: Cc1csc(C(C)(O)C#Cc2ccc3c(c2)N(c2ccnc(N)n2)CC3)c1 (stereo not shown) [Example 277, 4-(1-(2-amino-4-pyrimidinyl)-2,3-dihydro-1H-indol-6-yl)-2-(4-methyl-2-thienyl)-3-butyn-2-ol]
